Data as given in PMC7489219 (Molecular Brain, 2020).
Where a name gives a salt, the structure may show the parent alone.

system: T1, primary mouse cortical neurons; assay: cells; parameters: Protection from NMDA-induced (30 uM, 10 min) neuronal death; Hoechst nuclear morphology by automated microscopy; conditions: Cortical neurone, 20 h, read-out: % inhibition, inhibition of NMDA-induced cell death (protection score), 30 min pre-treatment
T1 construct: primary cortical neurons, DIV 10
How it was run: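 On DIV 10, primary mouse cortical neurons were given compound at 10 μM for 30 min at 37 °C, then 30 μM NMDA for 10 min, washed, and kept 20 h with compound. Dead cells were scored by nuclear morphology, and % protection was derived from survival relative to vehicle + NMDA and untreated controls.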

| Compound | inhibition at 10 µM [%] |
| --- | --- |
| C[C@@H]1CC[C@@]2(OC1)O[C@H]1C[C@H]3[C@@H]4CC=C5C[C@@H](O[C@@H]6O[C@H](CO)[C@@H](O[C@@H]7O[C@@H](C)[C@H](O)[C@@H](O)[C@H]7O)[C@H](O)[C@H]6O[C@@H]6O[C@@H](C)[C@H](O)[C@@H](O)[C@H]6O)CC[C@]5(C)[C@H]4CC[C@]3(C)[C@H]1[C@@H]2C [Dioscin (Collettiside III)] | 32.2 |
| C[C@@H]1CC[C@@]2(OC1)O[C@H]1C[C@H]3[C@@H]4CC=C5C[C@@H](O)CC[C@]5(C)[C@H]4CC[C@]3(C)[C@H]1[C@@H]2C [Diosgenin] | -1.47 |
| COc1ccc(-c2cc(=O)c3c(O)cc(O)cc3o2)cc1O [Diosmetin (Luteolin 4-methyl ether)] | 8.81 |
| COc1ccc(-c2cc(=O)c3c(O)cc(O[C@@H]4O[C@H](CO[C@@H]5O[C@@H](C)[C@H](O)[C@@H](O)[C@H]5O)[C@@H](O)[C@H](O)[C@H]4O)cc3o2)cc1O [Diosmin] | -0.0881 |
| CN(C)CCOC(c1ccccc1)c1ccccc1 [Diphenhydramine HCl (Benadryl)] | 1.97 |
| OCCN(CCO)c1nc(N2CCCCC2)c2nc(N(CCO)CCO)nc(N3CCCCC3)c2n1 [Dipyridamole (Persantine)] | -3.58 |
| CCN(CC)C(=S)SSC(=S)N(CC)CC [Disulfiram (Antabuse)] | -13.6 |
| CCCC(CCC)C(=O)O [Divalproex sodium] | 3.49 |
| CC(=O)O[C@@]12CO[C@@H]1C[C@H](O)[C@@]1(C)C(=O)[C@H](O)C3=C(C)[C@@H](OC(=O)[C@H](O)[C@@H](NC(=O)OC(C)(C)C)c4ccccc4)C[C@@](O)([C@@H](OC(=O)c4ccccc4)[C@H]21)C3(C)C [Docetaxel (Taxotere)] | -4.27 |
| O=c1[nH]c2ccccc2n1CCCN1CCC(n2c(=O)[nH]c3cc(Cl)ccc32)CC1 [Domperidone (Motilium)] | -9.12 |
| COc1cc2c(cc1OC)C(=O)C(CC1CCN(Cc3ccccc3)CC1)C2 (centres unmarked) [Donepezil HCl (Aricept)] | -8.98 |
| NCCc1ccc(O)c(O)c1 [Dopamine hydrochloride (Inotropin)] | -1.44 |
| C[C@@H](O)[C@H]1C(=O)N2C(C(=O)O)=C(S[C@@H]3CN[C@H](CNS(N)(=O)=O)C3)[C@H](C)[C@H]12 [Doripenem Hydrate] | -0.0213 |
| CCN[C@H]1C[C@H](C)S(=O)(=O)c2sc(S(N)(=O)=O)cc21 [Dorzolamide HCL] | 0.0606 |
| C[C@]12CCC(=O)C=C1[C@@H]1C[C@@H]1[C@H]1[C@@H]3[C@@H]4C[C@@H]4[C@@]4(CCC(=O)O4)[C@@]3(C)CC[C@@H]12 [Drospirenone] | -0.385 |
| C[C@]12C=CC(=O)N[C@@H]1CC[C@@H]1[C@@H]2CC[C@]2(C)[C@@H](C(=O)Nc3cc(C(F)(F)F)ccc3C(F)(F)F)CC[C@@H]12 [Dutasteride] | 113 |
| Cn1c(=O)c2c(ncn2CC(O)CO)n(C)c1=O (centres unmarked) [Dyphylline (Dilor)] | -0.361 |
| C[C@H]([C@H](O)CCC(C)(C)O)[C@H]1CC[C@@]2(O)C3=CC(=O)[C@@H]4C[C@@H](O)[C@@H](O)C[C@]4(C)[C@H]3CC[C@]12C [Ecdysone] | 0.187 |
| Clc1ccc(COC(Cn2ccnc2)c2ccc(Cl)cc2Cl)cc1 (centres unmarked) [Econazole nitrate (Spectazole)] | -2.25 |
| Cc1ccc(-n2[nH]c(C)c(N=Nc3cccc(-c4cccc(C(=O)O)c4)c3O)c2=O)cc1C [Eltrombopag (SB-497115-GR)] | 93.9 |
| COc1cc2c(cc1Cc1cccc(Cl)c1F)c(=O)c(C(=O)O)cn2[C@H](CO)C(C)C [Elvitegravir (GS-9137)] | 89.3 |
| Cc1cc(O)c2c(c1)C(=O)c1cc(O)cc(O)c1C2=O [Emodin] | -4.08 |

| Compound | inhibition at 10 µM [%] |
| --- | --- |
| Nc1nc(=O)n([C@@H]2CS[C@H](CO)O2)cc1F [Emtricitabine (Emtriva)] | 14.4 |
| CCOC(=O)[C@H](CCc1ccccc1)N[C@@H](C)C(=O)N1CCC[C@H]1C(=O)O [Enalapril maleate (Vasotec)] | 54.5 |
| C[C@H](N[C@@H](CCc1ccccc1)C(=O)O)C(=O)N1CCC[C@H]1C(=O)O [Enalaprilat dihydrate] | -4.34 |
| CC1(C)[C@@H](O)CC[C@]2(C)[C@H]3C(=O)C=C4[C@@H]5C[C@@](C)(C(=O)O)CC[C@]5(C)CC[C@@]4(C)[C@]3(C)CC[C@@H]12 [Enoxolone (Glycyrrhetin)] | -0.00685 |
| C=C1[C@H](CO)[C@@H](O)C[C@@H]1n1cnc2c(=O)[nH]c(N)nc21 [Entecavir hydrate] | 3.22 |
| CNC[C@H](O)c1ccc(O)c(O)c1 [Epinephrine bitartrate (Adrenalinium)] | -0.43 |
| COC(=O)[C@@H]1CC2=CC(=O)CC[C@]2(C)[C@@]23O[C@@H]2C[C@@]2(C)[C@@H](CC[C@@]24CCC(=O)O4)[C@H]13 [Eplerenone] | 6.59 |
| O=C(O)CSCC(=O)NC1CCSC1=O (centres unmarked) [Erdosteine] | -0.838 |
| CC(C)[C@@H](C)/C=C/[C@@H](C)[C@H]1CC[C@H]2C3=CC=C4C[C@@H](O)CC[C@]4(C)[C@H]3CC[C@]12C [Ergosterol] | -1.47 |
| C#Cc1cccc(Nc2ncnc3cc(OCCOC)c(OCCOC)cc23)c1 [Erlotinib HCl] | 22.9 |
| CC[C@H]1OC(=O)[C@H](C)[C@@H](O[C@H]2C[C@@](C)(OC)[C@@H](O)[C@H](C)O2)[C@H](C)[C@@H](O[C@@H]2O[C@H](C)C[C@H](N(C)C)[C@H]2O)[C@](C)(O)C[C@@H](C)C(=O)[C@H](C)[C@@H](O)[C@]1(C)O [Erythromycin (E-Mycin)] | 29.4 |
| COc1ccc2[nH]c([S@@+]([O-])Cc3ncc(C)c(OC)c3C)nc2c1 [Esomeprazole sodium (Nexium)] | 21.3 |
| C[C@]12CC[C@@H]3c4ccc(O)cc4CC[C@H]3[C@@H]1CC[C@@H]2O [Estradiol] | 4.78 |
| C[C@]12CC[C@@H]3c4ccc(O)cc4CC[C@H]3[C@@H]1CCC2=O [Estrone] | -2.18 |
| C#C[C@]1(O)CC[C@H]2[C@@H]3CCc4cc(O)ccc4[C@H]3CC[C@@]21C [Ethinyl estradiol] | 57.3 |
| CCc1cc(C(N)=S)ccn1 [Ethionamide] | 27.7 |
| CCc1cccc2c3c([nH]c12)C(CC)(CC(=O)O)OCC3 (centres unmarked) [Etodolac (Lodine)] | 9.68 |
| COc1cc([C@@H]2c3cc4c(cc3[C@@H](O[C@@H]3O[C@@H]5CO[C@@H](C)O[C@H]5[C@H](O)[C@H]3O)[C@H]3COC(=O)[C@H]23)OCO4)cc(OC)c1O [Etoposide (VP-16)] | -11.8 |
| O=C(c1ccc(OCCN2CCCCC2)cc1)c1c(-c2ccc(O)cc2)sc2cc(O)ccc12 [Evista (Raloxifene Hydrochloride)] | -19.3 |
| CN1c2ccccc2C(=O)N2CCc3c([nH]c4ccccc34)[C@H]21 [Evodiamine (Isoevodiamine)] | 0.0207 |
| C=C1C[C@@H]2[C@H](CC[C@]3(C)C(=O)CC[C@@H]23)[C@@]2(C)C=CC(=O)C=C12 [Exemestane] | -1.67 |
| O=C1[C@H](CC[C@H](O)c2ccc(F)cc2)[C@@H](c2ccc(O)cc2)N1c1ccc(F)cc1 [Ezetimibe (Zetia)] | 21.4 |

| Compound | inhibition at 10 µM [%] |
| --- | --- |
| Cc1nc(-c2ccc(OCC(C)C)c(C#N)c2)sc1C(=O)O [Febuxostat (Uloric)] | -0.186 |
| CCOC(=O)C1=C(C)NC(C)=C(C(=O)OC)C1c1cccc(Cl)c1Cl (centres unmarked) [Felodipine (Plendil)] | -1.75 |
| COC(=O)Nc1nc2cc(Sc3ccccc3)ccc2[nH]1 [Fenbendazole (Panacur)] | -8.52 |
| CC(C(=O)O)c1cccc(Oc2ccccc2)c1 (centres unmarked) [Fenoprofen calcium] | 1.38 |
| CC(C)C(=O)Oc1ccc(CO)cc1[C@H](CCN(C(C)C)C(C)C)c1ccccc1 [Fesoterodine fumarate (Toviaz)] | -0.933 |
| CC(C)(C)NC(=O)[C@H]1CC[C@H]2[C@@H]3CC[C@H]4NC(=O)C=C[C@]4(C)[C@H]3CC[C@]12C [Finasteride] | 59.6 |
| O=c1c(O)c(-c2ccc(O)c(O)c2)oc2cc(O)ccc12 [Fisetin (Fustel)] | -2.5 |
| CN1CCN(c2c(F)cc3c(=O)c(C(=O)O)cn(CCF)c3c2F)CC1 [Fleroxacin (Quinodis)] | -8.01 |
| O=c1[nH]c(=O)n([C@H]2C[C@H](O)[C@@H](CO)O2)cc1F [Floxuridine] | -8.07 |
| OC(Cn1cncn1)(Cn1cncn1)c1ccc(F)cc1F [Fluconazole] | 6.24 |
| Nc1nc(=O)[nH]cc1F [Flucytosine (Ancobon)] | 3.84 |
| Nc1nc(F)nc2c1ncn2[C@@H]1O[C@H](CO)[C@@H](O)[C@@H]1O [Fludarabine (Fludara)] | 16.2 |
| Nc1nc(F)nc2c1ncn2[C@@H]1O[C@H](COP(=O)(O)O)[C@@H](O)[C@@H]1O [Fludarabine Phosphate (Fludara)] | -10.8 |
| CCOC(=O)c1ncn2c1CN(C)C(=O)c1cc(F)ccc1-2 [Flumazenil] | -13.8 |
| CC(=O)OCC(=O)[C@@]12OC(C)(C)O[C@@H]1C[C@H]1[C@@H]3C[C@H](F)C4=CC(=O)C=C[C@]4(C)[C@@]3(F)[C@@H](O)C[C@@]12C [Fluocinonide (Vanos)] | -1.57 |
| CNCCC(Oc1ccc(C(F)(F)F)cc1)c1ccccc1 (centres unmarked) [Fluoxetine HCl] | -11.1 |
| CC(C(=O)O)c1ccc(-c2ccccc2)c(F)c1 (centres unmarked) [Flurbiprofen (Ansaid)] | 14 |
| COc1ccc(-c2coc3cc(O)ccc3c2=O)cc1 [Formononetin (Formononetol)] | -0.533 |
| N[C@@H](CSCCCO)C(=O)O [Fudosteine] | 7.72 |
| C[C@]12CC[C@@H]3c4ccc(O)cc4C[C@@H](CCCCCCCCC[S+]([O-])CCCC(F)(F)C(F)(F)F)[C@H]3[C@@H]1CC[C@@H]2O (some centres unmarked) [Fulvestrant (Faslodex)] | -2.64 |
| COc1cc(/C=C/C(=O)O)ccc1O [Fumalic acid (Ferulic acid)] | -0.686 |
